Results: patent US10189816B2, “Substituted pyridines as inhibitors of human immunodeficiency virus replication” (priority 2015, dated 2019)

What follows are molecules tested on NL-RLuc virus (assay: Inhibition of HIV replication (NL-RLuc reporter virus in MT-2 cells, luciferase readout)). Settings: Human immunodeficiency virus 1, MT2, 120 h, read-out: Activity.
Assay type: cell-based
In short: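 Antiviral EC50 came from luciferase signal after 5-day multicycle replication of NL-RLuc virus in MT-2 cells with serially diluted compound (RPMI 1640, 10% heat-inactivated FBS), fitted by the median effect equation over at least 2 experiments.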
With `Cc1nc(C)c([C@H](OC(C)(C)C)C(=O)O)c(N2CCC(C)(C)CC2)c1-c1ccc2c(c1)CCN(Cc1cc(F)c(F)cc1F)C2` [Compound 49, (S)-2-(tert-butoxy)-2-(4-(4,4-dimethylpiperidin-1-yl)-2,6-dimethyl-5-(2-(2,4,5-trifluorobenzyl)-1,2,3,4-tetrahydroisoquinolin-6-yl)pyridin-3-yl)acetic acid] the EC50 was < 0.1 µM.
`Cc1nc(C)c([C@H](OC(C)(C)C)C(=O)O)c(N2CCC(C)(C)CC2)c1-c1ccc2c(c1)CCN(Cc1c(F)cccc1F)C2` [Compound 50, (S)-2-(tert-butoxy)-2-(5-(2-(2,6-difluorobenzyl)-1,2,3,4-tetrahydroisoquinolin-6-yl)-4-(4,4-dimethylpiperidin-1-yl)-2,6-dimethylpyridin-3-yl)acetic acid] was tested, and the EC50 was < 0.1 µM.
With `Cc1cccc(F)c1CN1CCc2cc(-c3c(C)nc(C)c([C@H](OC(C)(C)C)C(=O)O)c3N3CCC(C)(C)CC3)ccc2C1` [Compound 51, (S)-2-(tert-butoxy)-2-(4-(4,4-dimethylpiperidin-1-yl)-5-(2-(2-fluoro-6-methylbenzyl)-1,2,3,4-tetrahydroisoquinolin-6-yl)-2,6-dimethylpyridin-3-yl)acetic acid] the EC50 was < 0.1 µM.
With `Cc1nc(C)c([C@H](OC(C)(C)C)C(=O)O)c(N2CCC(C)(C)CC2)c1-c1ccc2c(c1)CCN(Cc1ccc(Cl)cc1Cl)C2` [Compound 53, (S)-2-(tert-butoxy)-2-(5-(2-(2,4-dichlorobenzyl)-1,2,3,4-tetrahydroisoquinolin-6-yl)-4-(4,4-dimethylpiperidin-1-yl)-2,6-dimethylpyridin-3-yl)acetic acid] the EC50 was < 0.1 µM.
In the case of `Cc1cccc(CN2CCc3cc(-c4c(C)nc(C)c([C@H](OC(C)(C)C)C(=O)O)c4N4CCC(C)(C)CC4)ccc3C2)c1F` [Compound 54, (S)-2-(tert-butoxy)-2-(4-(4,4-dimethylpiperidin-1-yl)-5-(2-(2-fluoro-3-methylbenzyl)-1,2,3,4-tetrahydroisoquinolin-6-yl)-2,6-dimethylpyridin-3-yl)acetic acid], the EC50 is reported as < 0.1 µM.
`Cc1nc(C)c([C@H](OC(C)(C)C)C(=O)O)c(N2CCC(C)(C)CC2)c1-c1ccc2c(c1)CCN(Cc1ccccc1Cl)C2` [Compound 55, (S)-2-(tert-butoxy)-2-(5-(2-(2-chlorobenzyl)-1,2,3,4-tetrahydroisoquinolin-6-yl)-4-(4,4-dimethylpiperidin-1-yl)-2,6-dimethylpyridin-3-yl)acetic acid] was tested, and the EC50 was < 0.1 µM.
In the case of `Cc1nc(C)c([C@H](OC(C)(C)C)C(=O)O)c(N2CCC(C)(C)CC2)c1-c1ccc2c(c1)CCN(Cc1ccc(Cl)cc1)C2` [Compound 56, (S)-2-(tert-butoxy)-2-(5-(2-(4-chlorobenzyl)-1,2,3,4-tetrahydroisoquinolin-6-yl)-4-(4,4-dimethylpiperidin-1-yl)-2,6-dimethylpyridin-3-yl)acetic acid], the EC50 is reported as < 0.1 µM.
With `Cc1cc(C)c(CN2CCc3cc(-c4c(C)nc(C)c([C@H](OC(C)(C)C)C(=O)O)c4N4CCC(C)(C)CC4)ccc3C2)c(C)c1` [Compound 57, (S)-2-(tert-butoxy)-2-(4-(4,4-dimethylpiperidin-1-yl)-2,6-dimethyl-5-(2-(2,4,6-trimethylbenzyl)-1,2,3,4-tetrahydroisoquinolin-6-yl)pyridin-3-yl)acetic acid] the EC50 was < 0.1 µM.
In the case of `Cc1nc(C)c([C@H](OC(C)(C)C)C(=O)O)c(N2CCC(C)(C)CC2)c1-c1ccc2c(c1)CCN(Cc1c(F)cc(F)cc1F)C2` [Compound 58, (S)-2-(tert-butoxy)-2-(4-(4,4-dimethylpiperidin-1-yl)-2,6-dimethyl-5-(2-(2,4,6-trifluorobenzyl)-1,2,3,4-tetrahydroisoquinolin-6-yl)pyridin-3-yl)acetic acid], the EC50 is reported as < 0.1 µM.
`Cc1nc(C)c([C@H](OC(C)(C)C)C(=O)O)c(N2CCC(C)(C)CC2)c1-c1ccc2c(c1)CCN(Cc1ccc(C(C)C)cc1)C2` [Compound 59, (S)-2-(tert-butoxy)-2-(4-(4,4-dimethylpiperidin-1-yl)-5-(2-(4-isopropylbenzyl)-1,2,3,4-tetrahydroisoquinolin-6-yl)-2,6-dimethylpyridin-3-yl)acetic acid] was tested, and the EC50 was < 0.1 µM.
`CCc1ccc(CN2CCc3cc(-c4c(C)nc(C)c([C@H](OC(C)(C)C)C(=O)O)c4N4CCC(C)(C)CC4)ccc3C2)cc1` [Compound 60, (S)-2-(tert-butoxy)-2-(4-(4,4-dimethylpiperidin-1-yl)-5-(2-(4-ethylbenzyl)-1,2,3,4-tetrahydroisoquinolin-6-yl)-2,6-dimethylpyridin-3-yl)acetic acid] was tested, and the EC50 was < 0.1 µM.
For `Cc1nc(C)c([C@H](OC(C)(C)C)C(=O)O)c(N2CCC(C)(C)CC2)c1-c1ccc2c(c1)CCN(Cc1cccc(C#N)c1)C2` [Compound 61, (S)-2-(tert-butoxy)-2-(5-(2-(3-cyanobenzyl)-1,2,3,4-tetrahydroisoquinolin-6-yl)-4-(4,4-dimethylpiperidin-1-yl)-2,6-dimethylpyridin-3-yl)acetic acid], the EC50 was < 0.1 µM.
For `Cc1nc(C)c([C@H](OC(C)(C)C)C(=O)O)c(N2CCC(C)(C)CC2)c1-c1ccc2c(c1)CCN(Cc1ccccc1C#N)C2` [Compound 62, (S)-2-(tert-butoxy)-2-(5-(2-(2-cyanobenzyl)-1,2,3,4-tetrahydroisoquinolin-6-yl)-4-(4,4-dimethylpiperidin-1-yl)-2,6-dimethylpyridin-3-yl)acetic acid], the EC50 was < 0.1 µM.
For `Cc1nc(C)c([C@H](OC(C)(C)C)C(=O)O)c(N2CCC(C)(C)CC2)c1-c1ccc2c(c1)CCN(Cc1cc(C#N)ccc1F)C2` [Compound 63, (S)-2-(tert-butoxy)-2-(5-(2-(5-cyano-2-fluorobenzyl)-1,2,3,4-tetrahydroisoquinolin-6-yl)-4-(4,4-dimethylpiperidin-1-yl)-2,6-dimethylpyridin-3-yl)acetic acid], the EC50 was < 0.1 µM.
With `Cc1nc(C)c([C@H](OC(C)(C)C)C(=O)O)c(N2CCC(C)(C)CC2)c1-c1ccc2c(c1)CCN(Cc1ccc(C#N)cc1)C2` [Compound 64, (S)-2-(tert-butoxy)-2-(5-(2-(4-cyanobenzyl)-1,2,3,4-tetrahydroisoquinolin-6-yl)-4-(4,4-dimethylpiperidin-1-yl)-2,6-dimethylpyridin-3-yl)acetic acid] the EC50 was < 0.1 µM.
For `Cc1cc(C#N)ccc1CN1CCc2cc(-c3c(C)nc(C)c([C@H](OC(C)(C)C)C(=O)O)c3N3CCC(C)(C)CC3)ccc2C1` [Compound 65, (S)-2-(tert-butoxy)-2-(5-(2-(4-cyano-2-methylbenzyl)-1,2,3,4-tetrahydroisoquinolin-6-yl)-4-(4,4-dimethylpiperidin-1-yl)-2,6-dimethylpyridin-3-yl)acetic acid], the EC50 was < 0.1 µM.
With `Cc1nc(C)c([C@H](OC(C)(C)C)C(=O)O)c(N2CCC(C)(C)CC2)c1-c1ccc2c(c1)CCN(Cc1cc(F)ccc1C(F)(F)F)C2` [Compound 66, (S)-2-(tert-butoxy)-2-(4-(4,4-dimethylpiperidin-1-yl)-5-(2-(5-fluoro-2-(trifluoromethyl)benzyl)-1,2,3,4-tetrahydroisoquinolin-6-yl)-2,6-dimethylpyridin-3-yl)acetic acid] the EC50 was < 0.1 µM.
For `Cc1nc(C)c([C@H](OC(C)(C)C)C(=O)O)c(N2CCC(C)(C)CC2)c1-c1ccc2c(c1)CCN(Cc1ccc(F)c(C(F)(F)F)c1)C2` [Compound 67, (S)-2-(tert-butoxy)-2-(4-(4,4-dimethylpiperidin-1-yl)-5-(2-(4-fluoro-3-(trifluoromethyl)benzyl)-1,2,3,4-tetrahydroisoquinolin-6-yl)-2,6-dimethylpyridin-3-yl)acetic acid], the EC50 was < 0.1 µM.
With `Cc1nc(C)c([C@H](OC(C)(C)C)C(=O)O)c(N2CCC(C)(C)CC2)c1-c1ccc2c(c1)CCN(Cc1cc(F)cc(C(F)(F)F)c1)C2` [Compound 68, (S)-2-(tert-butoxy)-2-(4-(4,4-dimethylpiperidin-1-yl)-5-(2-(3-fluoro-5-(trifluoromethyl)benzyl)-1,2,3,4-tetrahydroisoquinolin-6-yl)-2,6-dimethylpyridin-3-yl)acetic acid] the EC50 was < 0.1 µM.
In the case of `Cc1nc(C)c([C@H](OC(C)(C)C)C(=O)O)c(N2CCC(C)(C)CC2)c1-c1ccc2c(c1)CCN(Cc1ccc(F)cc1C(F)(F)F)C2` [Compound 69, (S)-2-(tert-butoxy)-2-(4-(4,4-dimethylpiperidin-1-yl)-5-(2-(4-fluoro-2-(trifluoromethyl)benzyl)-1,2,3,4-tetrahydroisoquinolin-6-yl)-2,6-dimethylpyridin-3-yl)acetic acid], the EC50 is reported as < 0.1 µM.
With `Cc1nc(C)c([C@H](OC(C)(C)C)C(=O)O)c(N2CCC(C)(C)CC2)c1-c1ccc2c(c1)CCN(Cc1cc(C(F)(F)F)ccc1F)C2` [Compound 70, (S)-2-(tert-butoxy)-2-(4-(4,4-dimethylpiperidin-1-yl)-5-(2-(2-fluoro-5-(trifluoromethyl)benzyl)-1,2,3,4-tetrahydroisoquinolin-6-yl)-2,6-dimethylpyridin-3-yl)acetic acid] the EC50 was < 0.1 µM.
For `Cc1cc(CN2CCc3cc(-c4c(C)nc(C)c([C@H](OC(C)(C)C)C(=O)O)c4N4CCC(C)(C)CC4)ccc3C2)ccc1F` [Compound 71, (S)-2-(tert-butoxy)-2-(4-(4,4-dimethylpiperidin-1-yl)-5-(2-(4-fluoro-3-methylbenzyl)-1,2,3,4-tetrahydroisoquinolin-6-yl)-2,6-dimethylpyridin-3-yl)acetic acid], the EC50 was < 0.1 µM.
In the case of `Cc1nc(C)c([C@H](OC(C)(C)C)C(=O)O)c(N2CCC(C)(C)CC2)c1-c1ccc2c(c1)CCN(Cc1ccc(F)c(C)c1C)C2` [Compound 72, (S)-2-(tert-butoxy)-2-(4-(4,4-dimethylpiperidin-1-yl)-5-(2-(4-fluoro-2,3-dimethylbenzyl)-1,2,3,4-tetrahydroisoquinolin-6-yl)-2,6-dimethylpyridin-3-yl)acetic acid], the EC50 is reported as < 0.1 µM.

Same assay, conditions: Human immunodeficiency virus 1, MT2, 120 h, read-out: EC50 μM
For `Cc1cccc(F)c1CN1CCc2cc(-c3c(C)nc(C)c([C@H](OC(C)(C)C)C(=O)O)c3N3CCC(C)(C)CC3)ccc2C1` [Compound 51, (S)-2-(tert-butoxy)-2-(4-(4,4-dimethylpiperidin-1-yl)-5-(2-(2-fluoro-6-methylbenzyl)-1,2,3,4-tetrahydroisoquinolin-6-yl)-2,6-dimethylpyridin-3-yl)acetic acid], the EC50 was 0.003 µM.
Work on `Cc1nc(C)c([C@H](OC(C)(C)C)C(=O)O)c(N2CCC(C)(C)CC2)c1-c1ccc2c(c1)CCN(Cc1ccc(C(C)C)cc1)C2` [Compound 59, (S)-2-(tert-butoxy)-2-(4-(4,4-dimethylpiperidin-1-yl)-5-(2-(4-isopropylbenzyl)-1,2,3,4-tetrahydroisoquinolin-6-yl)-2,6-dimethylpyridin-3-yl)acetic acid] yielded an EC50 of 0.058 µM.
With `Cc1nc(C)c([C@H](OC(C)(C)C)C(=O)O)c(N2CCC(C)(C)CC2)c1-c1ccc2c(c1)CCN(Cc1cc(F)ccc1C(F)(F)F)C2` [Compound 66, (S)-2-(tert-butoxy)-2-(4-(4,4-dimethylpiperidin-1-yl)-5-(2-(5-fluoro-2-(trifluoromethyl)benzyl)-1,2,3,4-tetrahydroisoquinolin-6-yl)-2,6-dimethylpyridin-3-yl)acetic acid] the EC50 was 0.013 µM.

Same assay, conditions: NL-RLuc virus in MT-2 cells, 5 days of incubation, luciferase; at least 2 experiments; read-out: Activity
With `Cc1ccc(C(F)(F)F)cc1CN1CCc2cc(-c3c(C)nc(C)c([C@H](OC(C)(C)C)C(=O)O)c3N3CCC(C)(C)CC3)ccc2C1` [Compound 52, (S)-2-(tert-butoxy)-2-(4-(4,4-dimethylpiperidin-1-yl)-2,6-dimethyl-5-(2-(2-methyl-5-(trifluoromethyl)benzyl)-1,2,3,4-tetrahydroisoquinolin-6-yl)pyridin-3-yl)acetic acid] the EC50 was < 0.1 µM.
